Series [1] relates to L1210 leukemia. Nature of the series: Oral anticancer activity (survival time of L1210 leukemia-implanted BDF1 mice). It is filed as in vivo, BDF1 mice; L1210 cells from DBA/2 mice. The following applies: for Increase ratio in the survival time (T/C, %): Dose 150 mg/kg, daily for consecutive five days, L1210 implanted intraperitoneally. Here is the method:
The oral anticancer activity of the hexa-coordinate platinum(IV) complexes of the present invention was evaluated as follows. A group of eight 6-week old BDF1 mice was employed to test for each compound. 1×10^5 cells of L1210 leukemia in ascitic fluid from DBA/2 mice were implanted intraperitoneally in each mouse. The test solutions containing platinum(IV) complexes at different concentrations were orally administered daily for consecutive five days. The survival time of each group of the mice was recorded. The percent increase in the survival time as compared to the control group, T/C (%), was calculated as an indicator of the anticancer activity. The results are summarized in Table I. Drugs that have more than 125% of the T/C (%) values can be considered as efficient anticancer drugs. […] It is expected that the complex in Example 1 could be practically applicable since the acute toxicity was also low (LD50 =300 mg/kg)

Series [2] can be described thus: Acute toxicity. The format is in vivo.

Data on 6 compounds can be found in US5998648A, “Anticancer (IV) complexes for oral administration and a method of making the same” (Korea Institute of Science and Technology, priority 1997, dated 1999).

As for `CCC(=O)[O][Pt]([O]C(=O)CC)([O]C(=O)CC)[O]C(=O)CC.NC1CCCCC1N` [Example 1], in series [1], the “anticancer activity (in words)” value is “excellent anticancer activity” and the “Increase ratio in the survival time (T/C, %)” value (shortened to “Increase ratio … (T/C, %)”) came out at 160.9%. Moreover, the “acute toxicity / toxicity (in words)” value in series [2] (in vivo) was “low”. Moreover, in series [2] (species and route not given), the “acute toxicity LD50” value is listed as 300 mg/kg.

As for `CCCC(=O)[O][Pt]1([O]C(=O)CCC)([O]C(=O)CCC)([O]C(=O)CCC)[NH]C2CCCCC2[NH]1` (stereo not drawn) [Example 2], in series [1], the “Increase ratio … (T/C, %)” value was 139.1%.

On to `CCCC(=O)[O][Pt]1([O]C(=O)CCC)([O]C(=O)CCC)([O]C(=O)CCC)[NH]CC[NH]1` [Example 4, (NH2 CH2 CH2 NH2)Pt(OOCC3 H7)4], for which the “Increase ratio … (T/C, %)” value in series [1] is given as 115.4%.

Regarding `[OH][Pt]1([OH])([OH])([OH])[NH]C2CCCCC2[NH]1` (stereo not drawn) [compound 1, (DACH)Pt(OH)4, reference compound], in series [1], the “Increase ratio … (T/C, %)” value was found to be 108.8%.

As to “(DACH)PtCl2 (OAc)4 [compound 2, reference compound]”, in series [1], the “Increase ratio … (T/C, %)” value is recorded as 103.1%.

As for “[NH2 CH2 C(CH3)2 CH2 NH2 ]Pt(OOCC2 H5)4 [Example 6]”, the “Increase ratio … (T/C, %)” value in series [1] is reported as 130.8%.
